Test results: publication PMC5428521, “Identification of a Novel, Small Molecule Partial Agonist for the Cyclic AMP Sensor, EPAC1” (Scientific Reports, 2017)
Where “and” joins values, the source holds several entries; their conditions need not be identical. Identical values can stand only once.

What was measured:
[1] = target: T1, EPAC1-CNB (Homo sapiens, UniProt O95398); test: Ligand observed NMR (1D and waterLOGSY) with EPAC1-CNB; assay type: binding; details: compound 50 µM, protein 2.5 µM
T1 construct: EPAC1-CNB (amino acids 169–318 of EPAC1); made in house; host or cells: BL-21 Escherichia coli (pGEX-6P-1)
T1 sequence (O95398 169-318 isoform O95398-3): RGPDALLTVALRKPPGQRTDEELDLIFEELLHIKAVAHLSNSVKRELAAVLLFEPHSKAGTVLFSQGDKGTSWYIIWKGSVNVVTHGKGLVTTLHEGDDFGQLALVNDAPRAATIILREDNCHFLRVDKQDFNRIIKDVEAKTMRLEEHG
Excerpt: Given that I942 seems to exert selective agonist properties against EPAC1, but not EPAC2, we next sought to validate whether our isolated ligands can interact with EPAC1 and EPAC2. Ligand observed nuclear magnetic resonance (NMR) is a valuable tool for the identification and validation of small molecule ligands. We therefore used one dimensional proton (1D) and water-ligand observed by gradient spectroscopy (waterLOGSY) NMR to confirm the ability of I942 and I178 to bind to the purified CNBs of EPAC1 and EPAC2, in comparison with the commercially available EPAC1 antagonist, ESI-09[32]. In order to assess ligand/CNB interaction, 1D and waterLOGSY experiments were performed on each compound (50 µM) in the presence or absence of 2.5 µM EPAC-CNB. In the absence of protein, each test compound produced a well-resolved 1D spectrum and a region of each spectrum was chosen to display distinctive spectral peaks originating from the ligand (Fig. 6). In the absence of protein, the corresponding waterLOGSY peaks were small, or absent, due to the negligible signal produced by saturation transfer from water to the freely tumbling small molecule. […] In waterLOGSY spectra, protein-mediated saturation transfer can only occur if the protein-ligand complex has a substantial lifetime. […]
(A) One dimensional proton (1D) and waterLOGSY (WL) spectra were performed on samples containing hit compound I942 (50 µM) in the absence and presence of EPAC1-CNB, EPAC2-CNB or GST alone, as indicated (2.5 µM). […] Interaction between compound and protein was assessed through comparison of the compound alone and protein-compound sample spectra. […]
All NMR spectra were recorded on a Bruker AVANCE IIIHD 600 spectrometer equipped with a TCI cryoprobe at 285 K. Test compounds were prepared in deuterated DMSO and diluted to given experimental concentrations in NMR buffer (20 mM Na2PO4, pH 7.0, 50 mM NaCl, 0.1% (w/v) NaN3, 5% (v/v) D2O) with a final DMSO concentration below 0.1%. […] One dimensional proton (1D) and waterLOGSY spectra were recorded for all compounds tested, using pulse sequences as previously described. […]

[2] = target: T2, EPAC2 (amino acids 280–993) (Mus musculus, UniProt Q9EQZ6); test: In vitro GEF activity assay (MANT-GDP dissociation from Rap1), EPAC2; assay type: biochemical; details: for IC50: IC50, GEF Inhibition (with cAMP), 50 μM cAMP; for GEF Activation (no cAMP), AC50 / induced EPAC2 activity: absence of cAMP, N/A = inability to promote GEF activity of EPAC2
T2 construct: EPAC2 (amino acids 280–993); made in house; host or cells: bacteria
T2 sequence (Q9EQZ6 280-993 isoform Q9EQZ6-3): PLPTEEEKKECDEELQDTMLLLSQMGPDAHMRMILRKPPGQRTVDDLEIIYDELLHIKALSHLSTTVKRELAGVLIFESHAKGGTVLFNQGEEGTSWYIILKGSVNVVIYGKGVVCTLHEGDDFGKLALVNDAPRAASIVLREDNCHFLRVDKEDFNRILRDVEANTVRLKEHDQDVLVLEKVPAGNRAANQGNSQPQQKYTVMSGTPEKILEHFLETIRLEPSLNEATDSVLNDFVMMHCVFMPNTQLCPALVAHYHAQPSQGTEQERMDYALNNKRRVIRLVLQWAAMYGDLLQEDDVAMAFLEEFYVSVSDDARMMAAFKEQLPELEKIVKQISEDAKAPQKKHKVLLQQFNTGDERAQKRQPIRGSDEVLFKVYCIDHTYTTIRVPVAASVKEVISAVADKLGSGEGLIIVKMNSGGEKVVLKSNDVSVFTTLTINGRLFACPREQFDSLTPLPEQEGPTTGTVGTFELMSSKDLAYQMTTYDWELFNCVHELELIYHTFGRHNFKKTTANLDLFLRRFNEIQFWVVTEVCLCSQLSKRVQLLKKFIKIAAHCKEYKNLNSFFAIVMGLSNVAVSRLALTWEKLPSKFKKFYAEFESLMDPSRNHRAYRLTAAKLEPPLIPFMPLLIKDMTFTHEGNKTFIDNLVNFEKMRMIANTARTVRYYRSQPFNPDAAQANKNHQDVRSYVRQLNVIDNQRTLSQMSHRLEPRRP
Description: EPAC1 and EPAC2 in vitro GEF activities were calculated as previously described. Briefly, recombinant EPAC1 (amino acids 149–881) or EPAC2 (amino acids 280–993) were incubated at 100 nM with recombinant Rap1 (200 nM) preloaded with the fluorescent GDP analogue 2′/3′-O-(N-Methylanthraniloyl)guanosine 5-diphosphate (MANT-GDP) in the presence of 20 μM GDP and then the fluorescence intensity was measured at 360/450 nm (ex/em) over time. […] AC50 or IC50 values were determined from the plots of kobs against the concentration of the agonist and antagonist, respectively Table 1.

SMILES	NMR interaction [1]	IC50 [2]	GEF Activation (no cAMP), AC50 / induced EPAC2 activity [2]	Kd ([2]; read-out: affinity for EPAC2 280–993, approximated)
Cc1ccc(S(=O)(=O)NC(=O)COc2ccc3ccccc3c2)c(C)c1 [I942, N-(2,4-dimethylbenzenesulfonyl)-2-(naphthalen-2-yloxy)acetamide]	Strong, Specific Interaction	110 µM and ~110 µM	very weak	~5 µM
O=C(COc1ccc2ccccc2c1)NS(=O)(=O)c1ccccc1 [I178, N-(benzenesulfonyl)-2-(naphthalen-2-yloxy)acetamide]	Strong, Specific Interaction	250 µM and ~250 µM	very weak	
